# According to ChEMBL document CHEMBL1909046, “DrugMatrix in vitro pharmacology data”:
# Target: T1, Thromboxane-A synthase (Homo sapiens, UniProt P24557);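 note: enzyme inhibition assay with PGH2 supplied as substrate; in other assays of this panel Not Active means under 50% inhibition at 10 µM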
# T1 sequence (P24557 whole entry): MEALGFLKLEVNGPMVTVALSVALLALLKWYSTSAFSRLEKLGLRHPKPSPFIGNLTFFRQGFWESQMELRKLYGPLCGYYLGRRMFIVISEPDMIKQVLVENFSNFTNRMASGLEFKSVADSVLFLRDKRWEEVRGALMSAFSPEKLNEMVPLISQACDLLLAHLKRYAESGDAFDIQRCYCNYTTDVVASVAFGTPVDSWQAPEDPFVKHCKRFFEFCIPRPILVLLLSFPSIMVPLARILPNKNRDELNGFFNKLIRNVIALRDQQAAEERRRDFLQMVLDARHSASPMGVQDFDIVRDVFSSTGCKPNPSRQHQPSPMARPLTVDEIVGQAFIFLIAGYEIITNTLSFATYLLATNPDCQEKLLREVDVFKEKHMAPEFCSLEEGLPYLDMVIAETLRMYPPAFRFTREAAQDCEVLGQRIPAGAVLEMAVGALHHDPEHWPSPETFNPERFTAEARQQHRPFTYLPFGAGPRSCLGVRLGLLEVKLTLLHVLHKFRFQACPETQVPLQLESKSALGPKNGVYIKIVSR
# Experiment: biochemical
# Format: tissue-based, Platelet
# Settings: platelet
row,Structure (SMILES),IC50
1,CCOC(=O)C1=C(C)NC(C)=C(C(=O)OC)C1c1cccc(Cl)c1Cl (centres undefined) [FELODIPINE],Not Active
2,Cc1cn[nH]c1 [FOMEPIZOLE],Not Active
3,Cc1cnc(C(=O)NCCc2ccc(S(=O)(=O)NC(=O)NC3CCCCC3)cc2)cn1 [GLIPIZIDE],Not Active
4,COc1ccccc1OCC(O)CO (centres undefined) [GUAIFENESIN],Not Active
5,C/C=C\c1ccc(O)c(OC)c1 [ISOEUGENOL],Not Active
6,CC[C@H](C)C(=O)O[C@H]1C[C@@H](C)C=C2C=C[C@H](C)[C@H](CC[C@@H]3C[C@@H](O)CC(=O)O3)[C@H]21 [LOVASTATIN],Not Active
7,CC(=O)O[C@]1(C(C)=O)CC[C@H]2[C@@H]3C=C(C)C4=CC(=O)CC[C@]4(C)[C@H]3CC[C@@]21C [MEGESTROL ACETATE],Not Active
8,CN(Cc1cnc2nc(N)nc(N)c2n1)c1ccc(C(=O)N[C@@H](CCC(=O)O)C(=O)O)cc1 [METHOTREXATE],Not Active
9,O=C(O)c1cccnc1 [NIACIN],Not Active
10,OCCN1CCN(CCCN2c3ccccc3Sc3ccc(Cl)cc32)CC1 [PERPHENAZINE],Not Active

# System: not listed separately
# Experiment: DRUGMATRIX: Leukotriene, BLT (LTB4) radioligand binding (ligand: [3H]LTB4)
# Format: cell membranes, Membrane
# Settings: u-937; Not Active = under 50% inhibition at 10 µM
Structure (SMILES),IC50,Ki
CCOC(=O)C1=C(C)NC(C)=C(C(=O)OC)C1c1cccc(Cl)c1Cl (centres undefined) [FELODIPINE],Not Active,Not Active
Cc1cn[nH]c1 [FOMEPIZOLE],Not Active,Not Active
Cc1cnc(C(=O)NCCc2ccc(S(=O)(=O)NC(=O)NC3CCCCC3)cc2)cn1 [GLIPIZIDE],Not Active,Not Active
COc1ccccc1OCC(O)CO (centres undefined) [GUAIFENESIN],Not Active,Not Active
C/C=C\c1ccc(O)c(OC)c1 [ISOEUGENOL],Not Active,Not Active
CC[C@H](C)C(=O)O[C@H]1C[C@@H](C)C=C2C=C[C@H](C)[C@H](CC[C@@H]3C[C@@H](O)CC(=O)O3)[C@H]21 [LOVASTATIN],Not Active,Not Active
CC(=O)O[C@]1(C(C)=O)CC[C@H]2[C@@H]3C=C(C)C4=CC(=O)CC[C@]4(C)[C@H]3CC[C@@]21C [MEGESTROL ACETATE],Not Active,Not Active
CN(Cc1cnc2nc(N)nc(N)c2n1)c1ccc(C(=O)N[C@@H](CCC(=O)O)C(=O)O)cc1 [METHOTREXATE],Not Active,Not Active
O=C(O)c1cccnc1 [NIACIN],Not Active,Not Active
OCCN1CCN(CCCN2c3ccccc3Sc3ccc(Cl)cc32)CC1 [PERPHENAZINE],Not Active,Not Active

# Target: T2, Leukotriene C4 synthase (Cavia porcellus, UniProt A6XA80);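 note: enzyme inhibition assay of leukotriene C4 synthase, using LTA4 as the substrate; in other assays of this panel Not Active means under 50% inhibition at 10 µM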
# T2 sequence (A6XA80 whole entry): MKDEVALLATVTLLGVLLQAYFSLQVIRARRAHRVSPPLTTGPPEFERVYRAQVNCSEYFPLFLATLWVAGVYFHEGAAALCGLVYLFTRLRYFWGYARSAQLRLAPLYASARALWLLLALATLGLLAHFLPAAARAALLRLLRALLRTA
# Experiment: not given
# Format: tissue-based, Lung
# Settings: not given
row,Structure (SMILES),IC50
1,CCOC(=O)C1=C(C)NC(C)=C(C(=O)OC)C1c1cccc(Cl)c1Cl (centres undefined) [FELODIPINE],Not Active
2,Cc1cn[nH]c1 [FOMEPIZOLE],Not Active
3,Cc1cnc(C(=O)NCCc2ccc(S(=O)(=O)NC(=O)NC3CCCCC3)cc2)cn1 [GLIPIZIDE],Not Active
4,COc1ccccc1OCC(O)CO (centres undefined) [GUAIFENESIN],Not Active
5,C/C=C\c1ccc(O)c(OC)c1 [ISOEUGENOL],Not Active
6,CC[C@H](C)C(=O)O[C@H]1C[C@@H](C)C=C2C=C[C@H](C)[C@H](CC[C@@H]3C[C@@H](O)CC(=O)O3)[C@H]21 [LOVASTATIN],Not Active
7,CC(=O)O[C@]1(C(C)=O)CC[C@H]2[C@@H]3C=C(C)C4=CC(=O)CC[C@]4(C)[C@H]3CC[C@@]21C [MEGESTROL ACETATE],Not Active
8,CN(Cc1cnc2nc(N)nc(N)c2n1)c1ccc(C(=O)N[C@@H](CCC(=O)O)C(=O)O)cc1 [METHOTREXATE],Not Active
9,O=C(O)c1cccnc1 [NIACIN],Not Active
10,OCCN1CCN(CCCN2c3ccccc3Sc3ccc(Cl)cc32)CC1 [PERPHENAZINE],Not Active

# Target: T3, Muscarinic acetylcholine receptor M4 (Homo sapiens, UniProt P08173); note: in other assays of this panel Not Active means under 50% inhibition at 10 µM
# T3 sequence (P08173 whole entry): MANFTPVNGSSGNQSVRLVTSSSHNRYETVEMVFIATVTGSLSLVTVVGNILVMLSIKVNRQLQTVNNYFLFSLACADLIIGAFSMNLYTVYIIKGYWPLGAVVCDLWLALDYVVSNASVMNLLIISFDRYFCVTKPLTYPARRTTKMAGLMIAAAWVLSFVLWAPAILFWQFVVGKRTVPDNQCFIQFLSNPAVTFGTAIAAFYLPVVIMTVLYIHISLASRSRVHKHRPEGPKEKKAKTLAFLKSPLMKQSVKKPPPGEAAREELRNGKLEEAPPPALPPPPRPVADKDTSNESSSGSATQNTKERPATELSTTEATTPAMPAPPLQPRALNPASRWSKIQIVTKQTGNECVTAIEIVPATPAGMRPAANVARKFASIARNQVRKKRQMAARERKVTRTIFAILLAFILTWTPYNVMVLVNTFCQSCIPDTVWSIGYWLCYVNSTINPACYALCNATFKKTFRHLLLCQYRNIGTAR
# Experiment: not given
# Format: cell membranes, CHO-K1, Membrane
# Settings: cho-k1
row,Structure (SMILES),IC50
1,CCOC(=O)C1=C(C)NC(C)=C(C(=O)OC)C1c1cccc(Cl)c1Cl (centres undefined) [FELODIPINE],Not Active
2,Cc1cn[nH]c1 [FOMEPIZOLE],Not Active
3,Cc1cnc(C(=O)NCCc2ccc(S(=O)(=O)NC(=O)NC3CCCCC3)cc2)cn1 [GLIPIZIDE],Not Active
4,COc1ccccc1OCC(O)CO (centres undefined) [GUAIFENESIN],Not Active
5,C/C=C\c1ccc(O)c(OC)c1 [ISOEUGENOL],Not Active
6,CC[C@H](C)C(=O)O[C@H]1C[C@@H](C)C=C2C=C[C@H](C)[C@H](CC[C@@H]3C[C@@H](O)CC(=O)O3)[C@H]21 [LOVASTATIN],Not Active
7,CC(=O)O[C@]1(C(C)=O)CC[C@H]2[C@@H]3C=C(C)C4=CC(=O)CC[C@]4(C)[C@H]3CC[C@@]21C [MEGESTROL ACETATE],Not Active
8,CN(Cc1cnc2nc(N)nc(N)c2n1)c1ccc(C(=O)N[C@@H](CCC(=O)O)C(=O)O)cc1 [METHOTREXATE],Not Active
9,O=C(O)c1cccnc1 [NIACIN],Not Active
10,OCCN1CCN(CCCN2c3ccccc3Sc3ccc(Cl)cc32)CC1 [PERPHENAZINE],Not Active

# Target: Delta-type opioid receptor (Homo sapiens, UniProt P41143); note: in other assays of this panel Not Active means under 50% inhibition at 10 µM
# Experiment: not given
# Format: cell membranes, HEK293, Membrane
# Settings: hek293
# Chain of Delta-type opioid receptor (P41143 whole entry): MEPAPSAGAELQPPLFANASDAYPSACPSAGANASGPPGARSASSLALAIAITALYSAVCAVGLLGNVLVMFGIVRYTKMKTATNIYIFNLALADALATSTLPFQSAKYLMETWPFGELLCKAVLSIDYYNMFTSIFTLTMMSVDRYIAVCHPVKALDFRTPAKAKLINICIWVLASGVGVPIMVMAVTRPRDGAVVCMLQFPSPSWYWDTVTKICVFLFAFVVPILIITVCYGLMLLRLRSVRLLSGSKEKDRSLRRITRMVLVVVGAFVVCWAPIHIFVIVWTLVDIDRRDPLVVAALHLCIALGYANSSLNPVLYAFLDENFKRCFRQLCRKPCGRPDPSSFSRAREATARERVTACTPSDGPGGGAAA
row,Structure (SMILES),IC50
1,CCOC(=O)C1=C(C)NC(C)=C(C(=O)OC)C1c1cccc(Cl)c1Cl (centres undefined) [FELODIPINE],Not Active
2,Cc1cn[nH]c1 [FOMEPIZOLE],Not Active
3,Cc1cnc(C(=O)NCCc2ccc(S(=O)(=O)NC(=O)NC3CCCCC3)cc2)cn1 [GLIPIZIDE],Not Active
4,COc1ccccc1OCC(O)CO (centres undefined) [GUAIFENESIN],Not Active
5,C/C=C\c1ccc(O)c(OC)c1 [ISOEUGENOL],Not Active
6,CC[C@H](C)C(=O)O[C@H]1C[C@@H](C)C=C2C=C[C@H](C)[C@H](CC[C@@H]3C[C@@H](O)CC(=O)O3)[C@H]21 [LOVASTATIN],Not Active
7,CC(=O)O[C@]1(C(C)=O)CC[C@H]2[C@@H]3C=C(C)C4=CC(=O)CC[C@]4(C)[C@H]3CC[C@@]21C [MEGESTROL ACETATE],Not Active
8,CN(Cc1cnc2nc(N)nc(N)c2n1)c1ccc(C(=O)N[C@@H](CCC(=O)O)C(=O)O)cc1 [METHOTREXATE],Not Active
9,O=C(O)c1cccnc1 [NIACIN],Not Active
10,OCCN1CCN(CCCN2c3ccccc3Sc3ccc(Cl)cc32)CC1 [PERPHENAZINE],Not Active

# Target: Mitogen-activated protein kinase 14 (Homo sapiens, UniProt Q16539)
# Experiment: not given
# Set-up: species or system Escherichia coli
# Settings: not given
# Chain of Mitogen-activated protein kinase 14 (Q16539 whole entry): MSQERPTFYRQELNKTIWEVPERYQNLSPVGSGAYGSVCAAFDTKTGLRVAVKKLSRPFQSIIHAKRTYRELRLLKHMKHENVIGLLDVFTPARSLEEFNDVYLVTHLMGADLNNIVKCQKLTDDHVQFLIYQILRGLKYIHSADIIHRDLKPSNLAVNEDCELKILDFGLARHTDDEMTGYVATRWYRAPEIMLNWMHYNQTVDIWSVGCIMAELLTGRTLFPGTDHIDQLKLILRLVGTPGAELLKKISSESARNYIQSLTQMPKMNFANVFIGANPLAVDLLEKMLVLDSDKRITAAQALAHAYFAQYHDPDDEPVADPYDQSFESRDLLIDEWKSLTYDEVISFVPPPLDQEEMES
row,Structure (SMILES),IC50
1,CCOC(=O)C1=C(C)NC(C)=C(C(=O)OC)C1c1cccc(Cl)c1Cl (centres undefined) [FELODIPINE],Not Active
2,Cc1cn[nH]c1 [FOMEPIZOLE],Not Active
3,COc1ccccc1OCC(O)CO (centres undefined) [GUAIFENESIN],Not Active
4,C/C=C\c1ccc(O)c(OC)c1 [ISOEUGENOL],Not Active
5,CC[C@H](C)C(=O)O[C@H]1C[C@@H](C)C=C2C=C[C@H](C)[C@H](CC[C@@H]3C[C@@H](O)CC(=O)O3)[C@H]21 [LOVASTATIN],Not Active
6,CC(=O)O[C@]1(C(C)=O)CC[C@H]2[C@@H]3C=C(C)C4=CC(=O)CC[C@]4(C)[C@H]3CC[C@@]21C [MEGESTROL ACETATE],Not Active
7,CN(Cc1cnc2nc(N)nc(N)c2n1)c1ccc(C(=O)N[C@@H](CCC(=O)O)C(=O)O)cc1 [METHOTREXATE],Not Active
8,O=C(O)c1cccnc1 [NIACIN],Not Active
9,OCCN1CCN(CCCN2c3ccccc3Sc3ccc(Cl)cc32)CC1 [PERPHENAZINE],Not Active

# Target: Epidermal growth factor receptor (Homo sapiens, UniProt P00533)
# Experiment: DRUGMATRIX: Protein Tyrosine Kinase, EGF Receptor enzyme inhibition (substrate: Poly(Glu:Tyr))
# Format: cell-based, Insect cells
# Settings: insect cells; Not Active = under 50% inhibition at 10 µM
# Chain of Epidermal growth factor receptor (P00533 whole entry): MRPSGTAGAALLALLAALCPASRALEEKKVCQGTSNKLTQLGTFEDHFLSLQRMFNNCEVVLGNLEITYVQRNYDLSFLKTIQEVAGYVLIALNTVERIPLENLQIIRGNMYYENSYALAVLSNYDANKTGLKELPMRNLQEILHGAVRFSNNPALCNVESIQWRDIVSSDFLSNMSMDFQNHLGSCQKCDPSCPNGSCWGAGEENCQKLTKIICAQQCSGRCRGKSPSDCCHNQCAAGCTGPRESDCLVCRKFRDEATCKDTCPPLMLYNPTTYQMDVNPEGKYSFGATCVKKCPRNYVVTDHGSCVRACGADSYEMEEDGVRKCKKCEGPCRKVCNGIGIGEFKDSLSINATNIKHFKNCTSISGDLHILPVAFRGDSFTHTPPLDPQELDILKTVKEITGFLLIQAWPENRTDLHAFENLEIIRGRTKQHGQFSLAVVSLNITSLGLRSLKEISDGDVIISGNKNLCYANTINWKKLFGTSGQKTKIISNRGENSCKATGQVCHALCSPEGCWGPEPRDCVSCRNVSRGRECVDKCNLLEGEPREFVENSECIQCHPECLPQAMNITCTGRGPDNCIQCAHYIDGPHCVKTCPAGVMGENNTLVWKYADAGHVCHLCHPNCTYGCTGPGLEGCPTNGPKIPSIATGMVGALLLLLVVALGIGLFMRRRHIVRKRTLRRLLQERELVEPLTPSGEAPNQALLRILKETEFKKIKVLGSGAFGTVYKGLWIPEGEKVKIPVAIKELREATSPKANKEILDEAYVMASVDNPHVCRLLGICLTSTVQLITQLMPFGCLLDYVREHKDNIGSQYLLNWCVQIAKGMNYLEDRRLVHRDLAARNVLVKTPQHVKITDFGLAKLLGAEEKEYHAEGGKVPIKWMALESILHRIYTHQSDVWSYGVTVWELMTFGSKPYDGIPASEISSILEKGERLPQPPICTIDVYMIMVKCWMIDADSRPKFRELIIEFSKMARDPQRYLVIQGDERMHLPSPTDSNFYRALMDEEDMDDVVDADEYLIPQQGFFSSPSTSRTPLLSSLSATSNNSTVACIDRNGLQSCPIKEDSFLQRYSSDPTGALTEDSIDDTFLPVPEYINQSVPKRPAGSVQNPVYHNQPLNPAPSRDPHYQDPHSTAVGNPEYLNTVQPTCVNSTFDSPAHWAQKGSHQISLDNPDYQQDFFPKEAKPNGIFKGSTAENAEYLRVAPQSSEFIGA
row,Structure (SMILES),IC50
1,CCOC(=O)C1=C(C)NC(C)=C(C(=O)OC)C1c1cccc(Cl)c1Cl (centres undefined) [FELODIPINE],Not Active
2,Cc1cn[nH]c1 [FOMEPIZOLE],Not Active
3,Cc1cnc(C(=O)NCCc2ccc(S(=O)(=O)NC(=O)NC3CCCCC3)cc2)cn1 [GLIPIZIDE],Not Active
4,COc1ccccc1OCC(O)CO (centres undefined) [GUAIFENESIN],Not Active
5,C/C=C\c1ccc(O)c(OC)c1 [ISOEUGENOL],Not Active
6,CC[C@H](C)C(=O)O[C@H]1C[C@@H](C)C=C2C=C[C@H](C)[C@H](CC[C@@H]3C[C@@H](O)CC(=O)O3)[C@H]21 [LOVASTATIN],Not Active
7,CC(=O)O[C@]1(C(C)=O)CC[C@H]2[C@@H]3C=C(C)C4=CC(=O)CC[C@]4(C)[C@H]3CC[C@@]21C [MEGESTROL ACETATE],Not Active
8,CN(Cc1cnc2nc(N)nc(N)c2n1)c1ccc(C(=O)N[C@@H](CCC(=O)O)C(=O)O)cc1 [METHOTREXATE],Not Active
9,O=C(O)c1cccnc1 [NIACIN],Not Active
10,OCCN1CCN(CCCN2c3ccccc3Sc3ccc(Cl)cc32)CC1 [PERPHENAZINE],Not Active
